Values belong to the compound of their own block, whether it stands above or below them.
Assays:
Type in all cases: functional, cell-based
P2Y purinoceptor 4 [1] = target: T1, P2Y purinoceptor 4 (Homo sapiens, UniProt P51582); assay: Agonist activity at human P2Y4 receptor expressed in human 1321N1 cells assessed as concentration required to 50% maximal response of compound 3 at 10 uM by fura2/AM assay
P2Y purinoceptor 2 [2] = target: T2, P2Y purinoceptor 2 (Homo sapiens, UniProt P41231); assay: Agonist activity at human P2Y2 receptor expressed in human 1321N1 cells assessed as calcium elevation by fura2/AM assay
P2Y purinoceptor 6 [3] = target: T3, P2Y purinoceptor 6 (Homo sapiens, UniProt Q15077); assay: Agonist activity at human P2Y6 receptor expressed in human 1321N1 cells assessed as calcium elevation at 10 uM by fura2/AM assay
P2Y purinoceptor 6 [4] = target: T3, P2Y purinoceptor 6; assay: Agonist activity at human P2Y6 receptor expressed in human 1321N1 cells assessed as calcium elevation by fura2/AM assay
P2Y purinoceptor 4 [5] = target: T1, P2Y purinoceptor 4; assay: Agonist activity at human P2Y4 receptor expressed in human 1321N1 cells assessed as calcium elevation by fura2/AM assay
P2Y purinoceptor 2 [6] = target: T2, P2Y purinoceptor 2; assay: Agonist activity at human P2Y2 receptor expressed in human 1321N1 cells assessed as concentration required to 50% maximal response of compound 3 at 10 uM by fura2/AM assay
P2Y purinoceptor 6 [7] = target: T3, P2Y purinoceptor 6; assay: Agonist activity at human P2Y6 receptor expressed in human 1321N1 cells assessed as concentration required to 50% maximal response of compound 3 at 10 uM by fura2/AM assay
P2Y purinoceptor 4 [8] = target: T1, P2Y purinoceptor 4; assay: Agonist activity at human P2Y4 receptor expressed in human 1321N1 cells assessed as calcium elevation at 10 uM by fura2/AM assay
P2Y purinoceptor 2 [9] = target: T2, P2Y purinoceptor 2; assay: Agonist activity at human P2Y2 receptor expressed in human 1321N1 cells assessed as calcium elevation at 10 uM by fura2/AM assay
P2Y purinoceptor 2 [10] = target: P2Y purinoceptor 2 (Mus musculus, UniProt P35383); assay: Agonist activity at mouse P2Y2 receptor expressed in human 1321N1 cells assessed as calcium elevation by fura2/AM assay
Sequence of P2Y purinoceptor 2 (Mus musculus, UniProt P35383) (P35383 whole entry): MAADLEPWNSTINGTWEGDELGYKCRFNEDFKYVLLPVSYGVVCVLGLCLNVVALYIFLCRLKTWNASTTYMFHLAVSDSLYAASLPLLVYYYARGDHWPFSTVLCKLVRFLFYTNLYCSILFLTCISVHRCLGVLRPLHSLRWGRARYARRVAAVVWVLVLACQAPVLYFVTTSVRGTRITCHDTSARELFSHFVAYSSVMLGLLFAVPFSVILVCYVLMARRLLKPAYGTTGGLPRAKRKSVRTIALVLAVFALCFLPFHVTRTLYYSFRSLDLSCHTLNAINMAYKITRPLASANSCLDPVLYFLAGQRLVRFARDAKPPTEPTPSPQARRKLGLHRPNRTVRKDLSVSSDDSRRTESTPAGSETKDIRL

T1 sequence (P51582 whole entry): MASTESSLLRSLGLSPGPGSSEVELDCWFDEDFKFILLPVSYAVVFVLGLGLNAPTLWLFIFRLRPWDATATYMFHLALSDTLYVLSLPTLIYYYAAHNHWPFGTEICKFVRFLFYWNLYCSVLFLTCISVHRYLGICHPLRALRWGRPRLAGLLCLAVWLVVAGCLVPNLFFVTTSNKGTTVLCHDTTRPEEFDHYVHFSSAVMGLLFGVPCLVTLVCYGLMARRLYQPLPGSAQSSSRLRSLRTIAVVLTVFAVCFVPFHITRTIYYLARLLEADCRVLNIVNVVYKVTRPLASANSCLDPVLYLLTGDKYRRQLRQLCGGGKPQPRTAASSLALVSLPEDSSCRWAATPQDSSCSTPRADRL
T2 sequence (P41231 whole entry): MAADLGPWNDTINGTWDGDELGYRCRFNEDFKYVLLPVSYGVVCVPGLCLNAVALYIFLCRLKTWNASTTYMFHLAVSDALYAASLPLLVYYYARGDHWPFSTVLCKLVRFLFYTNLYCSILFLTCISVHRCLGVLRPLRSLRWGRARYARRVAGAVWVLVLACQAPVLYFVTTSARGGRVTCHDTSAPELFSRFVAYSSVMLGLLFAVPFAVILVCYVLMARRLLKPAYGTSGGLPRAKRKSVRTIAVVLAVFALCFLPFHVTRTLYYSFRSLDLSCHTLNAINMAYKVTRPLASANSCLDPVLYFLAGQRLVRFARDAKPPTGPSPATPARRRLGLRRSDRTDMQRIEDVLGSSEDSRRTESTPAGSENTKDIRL
T3 sequence (Q15077 whole entry): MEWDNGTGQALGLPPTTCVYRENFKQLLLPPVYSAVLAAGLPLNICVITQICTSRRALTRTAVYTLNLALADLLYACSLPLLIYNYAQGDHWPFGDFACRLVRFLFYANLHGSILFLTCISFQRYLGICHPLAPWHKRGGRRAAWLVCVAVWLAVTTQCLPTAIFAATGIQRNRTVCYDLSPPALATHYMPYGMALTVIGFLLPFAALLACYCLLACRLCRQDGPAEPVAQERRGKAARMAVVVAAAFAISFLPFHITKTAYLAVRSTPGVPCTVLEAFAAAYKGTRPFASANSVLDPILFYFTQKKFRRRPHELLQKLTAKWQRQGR

Structure (SMILES): O=c1ccn([C@@H]2O[C@H](COP(=O)(O)OP(=O)(O)OP(=O)(O)OP(=O)(O)OC[C@H]3O[C@@H](n4ccc(=O)[nH]c4=O)[C@H](O)[C@@H]3O)C3OC(Cc4ccccc4)OC32)c(=O)[nH]1 (stereo partly drawn)
EC50 (P2Y purinoceptor 6 [4]; read-out: EC50): 140 nM

Structure (SMILES): COc1cn([C@@H]2O[C@H](COP(=O)(O)OP(=O)(O)O)[C@@H](O)[C@H]2O)c(=O)[nH]c1=O
EC50 (P2Y purinoceptor 6 [4]; read-out: EC50): 80 nM
EC50 (P2Y purinoceptor 4 [5]; read-out: EC50): ≥ 20000 nM
EC50 (P2Y purinoceptor 2 [2]; 1321-n1): Not Active

Structure (SMILES): O=c1cc(Sc2ccccc2)n([C@@H]2O[C@H](COP(=O)(O)OP(=O)(O)OP(=O)(O)O)[C@@H](O)[C@H]2O)c(=O)[nH]1
EC50 (P2Y purinoceptor 6 [4]; 1321-n1): Not Active
EC50 (P2Y purinoceptor 4 [5]; 1321-n1): Not Active
EC50 (P2Y purinoceptor 2 [2]; 1321-n1): Not Active

Structure (SMILES): COc1cn([C@@H]2O[C@H](COP(=O)(O)OP(=O)(O)OP(=O)(O)O)[C@@H](O)[C@H]2O)c(=O)[nH]c1=O
EC50 (P2Y purinoceptor 6 [4]; read-out: EC50): 900 nM
EC50 (P2Y purinoceptor 4 [8]): Active
EC50 (P2Y purinoceptor 2 [2]; read-out: EC50): 2000 nM

Structure (SMILES): O=c1[nH]c(=O)n([C@@H]2O[C@H](COP(=O)(O)OP(=O)(O)S)[C@@H](O)[C@H]2O)cc1Br (stereo partly drawn)
EC50 (P2Y purinoceptor 6 [4]; read-out: EC50): 47 nM

Structure (SMILES): Nc1ccn([C@H]2C[C@H](O)[C@@H](COP(=O)(O)OP(=O)(O)OP(=O)(O)OP(=O)(O)OC[C@H]3O[C@@H](n4ccc(=O)[nH]c4=O)[C@H](O)[C@@H]3O)O2)c(=O)n1 [DENUFOSOL]
EC50 (P2Y purinoceptor 2 [2]; read-out: EC50): 220 nM

Structure (SMILES): O=c1ccn([C@@H]2O[C@H](COP(=O)(O)OP(=O)(O)OP(=O)(O)O)[C@@H](O)[C@H]2O)c(=O)[nH]1 [URIDINE TRIPHOSPHATE]
EC50 (P2Y purinoceptor 4 [5]; read-out: EC50): 500 nM
EC50 (P2Y purinoceptor 2 [2]; read-out: EC50): 100 nM

Other lines, results leading:

EC50 (P2Y purinoceptor 4 [1]): 600 nM
EC50 (P2Y purinoceptor 2 [2]; read-out: EC50): 6000 nM
EC50 (P2Y purinoceptor 6 [3]): Active
Structure (SMILES): O=c1[nH]c(=O)n([C@@H]2O[C@H](COP(=O)(O)OP(=O)(O)OP(=O)(O)O)[C@@H](O)[C@H]2O)cc1F

EC50 (P2Y purinoceptor 6 [4]; read-out: EC50): 800 nM
EC50 (P2Y purinoceptor 4 [5]; read-out: EC50): 10000 nM
EC50 (P2Y purinoceptor 2 [2]; read-out: EC50): 2060 nM
Structure (SMILES): O=c1[nH]c(=O)n([C@@H]2O[C@H](COP(=O)(O)OP(=O)(O)OP(=O)(O)O)[C@@H](O)[C@H]2O)cc1Br

EC50 (P2Y purinoceptor 6 [4]; read-out: EC50): 13 nM
Structure (SMILES): O=c1[nH]c(=O)n([C@@H]2O[C@H](COP(=O)(O)OP(=O)(O)O)[C@@H](O)[C@H]2O)cc1I

EC50 (P2Y purinoceptor 2 [6]): 2000 nM
EC50 (P2Y purinoceptor 4 [1]): 3500 nM
EC50 (P2Y purinoceptor 6 [7]): 10000 nM
Structure (SMILES): O=c1[nH]c(=O)n([C@@H]2O[C@H](COP(=O)(O)OP(=O)(O)O)[C@@H](O)[C@H]2O)cc1F

EC50 (P2Y purinoceptor 6 [4]; 1321-n1): Not Active
EC50 (P2Y purinoceptor 4 [5]; 1321-n1): Not Active
EC50 (P2Y purinoceptor 2 [2]; read-out: EC50): 3000 nM
Structure (SMILES): COc1cc(=O)[nH]c(=O)n1[C@@H]1O[C@H](COP(=O)(O)OP(=O)(O)OP(=O)(O)O)[C@@H](O)[C@H]1O

EC50 (P2Y purinoceptor 6 [4]; read-out: EC50): 230 nM
Structure (SMILES): O=c1ccn([C@]23C[C@H]2[C@H](COP(=O)(O)OP(=O)(O)O)[C@@H](O)[C@H]3O)c(=O)[nH]1

EC50 (P2Y purinoceptor 2 [9]): Active
EC50 (P2Y purinoceptor 6 [4]; 1321-n1): Not Active
EC50 (P2Y purinoceptor 4 [5]; 1321-n1): Not Active
Structure (SMILES): CSc1cc(=O)[nH]c(=O)n1[C@@H]1O[C@H](COP(=O)(O)OP(=O)(O)OP(=O)(O)O)[C@@H](O)[C@H]1O

EC50 (P2Y purinoceptor 2 [10]): 99000 nM
Structure (SMILES): CCc1cn([C@@H]2O[C@H](COP(=O)(O)OP(=O)(O)OP(=O)(O)O)[C@@H](O)[C@H]2O)c(=O)[nH]c1=O

EC50 (P2Y purinoceptor 6 [4]; read-out: EC50): 140 nM
Structure (SMILES): O=c1ccn([C@@H]2O[C@H](COP(=O)(O)OP(=O)(O)O)[C@@H](O)[C@H]2O)c(=O)[nH]1 [URIDINE_DIPHOSPHATE]

Reference: ChEMBL document CHEMBL1156882, “5-OMe-UDP is a potent and selective P2Y(6)-receptor agonist” (J Med Chem, 2010)
